Laboratory results as given in patent US20220016060A1, “USE OF SODIUM 2-(3-PENTYLPHENYL)ACETATE IN THE TREATMENT OF ALSTRÖM SYNDROME” (LIMINAL BIOSCIENCES LIMITED, priority 2018, published 2022).
“And” between values parts separate entries of the source, which are not always exact repeats. Equal entries are not always repeated.

Assays:
Type in all cases: in vivo, human
ALMS patients [1] = assay: Non-Alcoholic Fatty Liver Disease (NAFLD) Fibrosis Score; conditions: for Change from Baseline NAFLD Score with an FPG > 5.6 mmol/L, Mean (SD) / Change from Baseline NAFLD Score with an FPG > 5.6 mmol/L, Median / NAFLD Fibrosis Score in Subjects with an FPG > 5.6 mmol/L: 800 mg daily oral; for NAFLD Fibrosis Score in Subjects with an FPG > 5.6 mmol/L: individual subjects
Description: (§1) The study was a Phase 2, single-centre, single-arm, open-label study of sodium 2-(3-pentylphenyl)acetate administered at a total daily oral dose of 800 mg for up to 72 weeks in subjects with ALMS was undertaken. The initial duration of the study was 24 weeks, and subjects were offered to enrol into an extension phase of […]. The schedule of study procedures for the enrolment, intervention, and assessments for participants is outlined in FIG. 1. Sodium 2-(3-pentylphenyl)acetate was formulated in soft gelatine capsules containing 200 mg of Sodium 2-(3-pentylphenyl)acetate (amorphous powder) per capsule, polyethylene glycol 400, National Formulary (NF), hydrochloric acid (for pH adjustment), and water. The effect of sodium 2-(3-pentylphenyl)acetate on liver histology in ALMS patients was also assessed by measuring the Non-Alcoholic Fatty Liver Disease (NAFLD) Fibrosis Score. Increased NAFLD fibrosis score may be associated with hepatic dysfunction.

ALMS patients [2] = assay: Albumin-to-creatinine ratio (ACR); conditions: for Change from Baseline ACR, Mean (SD) / Change from Baseline ACR, Median / ACR: 800 mg daily oral; for ACR: individual subjects, listed as sodium 2-(3-pentylphenypacetate)
Description: as §1, with “water. Albuminuria, the increase in excretion of urinary albumin, is marker of kidney damage and is assessed by measuring the ACR.” for “water.”, “kidney histology/damage” for “liver histology”, “was” for “was also”, “ACR.” for “Non-Alcoholic Fatty Liver Disease (NAFLD) Fibrosis Score. Increased NAFLD fibrosis score may be associated with hepatic dysfunction.”

ALMS patients [3] = assay: Fasting insulin; conditions: for Change from Baseline Fasting Insulin, Mean / Change from Baseline Fasting Insulin, Median: 800 mg daily oral; for decrease of fasting insulin from baseline: Subject 826-001-003
Description: as §1, with “water.” for “water. The effect of sodium 2-(3-pentylphenyl)acetate on liver histology in ALMS patients was also assessed by measuring the Non-Alcoholic Fatty Liver Disease (NAFLD) Fibrosis Score. Increased NAFLD fibrosis score may be associated with hepatic dysfunction.”

ALMS patients [4] = assay: Histological examination of adipocyte tissue, average adipocyte area
Description: The study was a Phase 2, single-centre, single-arm, open-label study of sodium 2-(3-pentylphenyl)acetate administered at a total daily oral dose of 800 mg for up to 72 weeks in subjects with ALMS was undertaken. The initial duration of the study was 24 weeks, and subjects were offered to enrol into an extension phase of 36 or 48 weeks. The schedule of study procedures for the enrolment, intervention, and assessments for participants is outlined in FIG. 1. Sodium 2-(3-pentylphenyl)acetate was formulated in soft gelatine capsules containing 200 mg of Sodium 2-(3-pentylphenyl)acetate (amorphous powder) per capsule, polyethylene glycol 400, National Formulary (NF), hydrochloric acid (for pH adjustment), and water. Histological examination of adipocyte tissue in an ALMS subject (before study drug treatment) was characterized by hypertrophy and coalescence of adipocytes, forming giant vesicular vacuolation/steatosis (FIG. 2A). […] Decreases in average adipocyte area from baseline ranged from 11% to 26%. Of note, the largest increase in average adipocyte area from baseline occurred in Subject 826-001-012 (25%), who had ongoing medical histories of hypothyroidism, myocardial ischemia, T2D, chronic kidney disease, and dyslipidemia. This subject was also characterized as obese with a baseline BMI of 38.13 kg/m^2.

[5] = Subject 826-001-001, 204-day break in treatment
[6] = Subject 826-001-007, 32-day break in treatment
[7] = Subject 826-001-013, 30-day break in treatment
[8] = 800 mg, Week 24, mean of subjects
[9] = 800 mg, Week 24, median of subjects

For `CCCCCc1cccc(CC(=O)[O-])c1.[Na+]` [sodium 2-(3-pentylphenyl)acetate], the “subjects in whom NAFLD fibrosis score decreased or did not change from baseline” value (ALMS patients [1]; 7/12 subjects) was 58.3%, the “Change from Baseline NAFLD Score with an FPG > 5.6 mmol/L, Mean (SD)” value (“Change from Baseline NAFLD Score … (SD)” for short) (ALMS patients [1]; EP Week 12 (Week 36), N=10) was −0.39 (0.683) and the “Change from Baseline NAFLD Score with an FPG > 5.6 mmol/L, Median” value (from here on “Change from Baseline NAFLD Score … Median”) (ALMS patients [1]; EP Week 12 (Week 36), N=10) was −0.69. The “Change from Baseline NAFLD Score … (SD)” value (ALMS patients [1]; EP Week 24 (Week 48), N=9) was −0.34 (0.758), the “Change from Baseline NAFLD Score … Median” value (ALMS patients [1]; EP Week 24 (Week 48), N=9) was −0.28 and the “Change from Baseline NAFLD Score … (SD)” value (ALMS patients [1]; EP Week 36 (Week 60), N=9) was −0.16 (0.684). The “Change from Baseline NAFLD Score … Median” value (ALMS patients [1]; EP Week 36 (Week 60), N=9) was −0.14, the “increase in NAFLD fibrosis score from baseline” value (ALMS patients [1]; [5]) was 0.7 and the “Change from Baseline NAFLD Score … (SD)” value (ALMS patients [1]; Week 12, N=11) was −0.35 (0.582). The “Change from Baseline NAFLD Score … Median” value (ALMS patients [1]; Week 12, N=11) was −0.34, the “Change from Baseline NAFLD Score … (SD)” value (ALMS patients [1]; Week 24, N=9) was 0.16 (0.446) and the “Change from Baseline NAFLD Score … Median” value (ALMS patients [1]; Week 24, N=9) was 0.21. For the same compound, the “NAFLD Fibrosis Score in Subjects with an FPG > 5.6 mmol/L” value (“NAFLD Fibrosis Score in Subjects” below) (ALMS patients [1]; EP Week 12 (Week 36)) was −1.9 and −3.1 and −3.8 (4×) and −1.6 and −1.2 and 0.2 and −3.6, the “NAFLD Fibrosis Score in Subjects” value (ALMS patients [1]; EP Week 24 (Week 48)) was −1.9 and −4.4 and −3.0 and −3.8 and −0.8 and −1.0 and −3.1 and 0.5 and −4.2 and the “NAFLD Fibrosis Score in Subjects” value (ALMS patients [1]; EP Week 36 (Week 60)) was −1.5 and −3.7 and −2.9 (2×) and −4.2 and −1.1 and 0.2 and −3.4 and −3.8. The “NAFLD Fibrosis Score in Subjects” value (ALMS patients [1]; Week 12) was −2.5 and −1.8 and −3.9 (2×) and −3.1 and −1.4 and −0.8 (2×) and −3.3 and 0.6 and −4.3, the “NAFLD Fibrosis Score in Subjects” value (ALMS patients [1]; Week 24) was −1.5 and −1.9 and −2.7 (2×) and −3.8 and −0.2 and −2.9 and −1.0 and −3.7 and the “Change from Baseline ACR, Mean (SD)” value (ALMS patients [2]; EP Week 12 (Week 36), N=10) was 6.19 (16.707) mg/mmol. For the same compound, the “Change from Baseline ACR, Median” value (ALMS patients [2]; EP Week 12 (Week 36), N=10) was 1.25 mg/mmol, the “Change from Baseline ACR, Mean (SD)” value (ALMS patients [2]; EP Week 24 (Week 48), N=10) was 13.30 (28.301) mg/mmol and the “Change from Baseline ACR, Median” value (ALMS patients [2]; EP Week 24 (Week 48), N=10) was 1.30 mg/mmol. The “Change from Baseline ACR, Mean (SD)” value (ALMS patients [2]; EP Week 36 (Week 60), N=9) was 21.32 (44.461) mg/mmol, the “Change from Baseline ACR, Median” value (ALMS patients [2]; EP Week 36 (Week 60), N=9) was 1.60 mg/mmol and the “increase in ACR from baseline” value (ALMS patients [2]; Subject 826-001-003, 32-day break in treatment) was 13.8 mg/mmol. For the same compound, the “increase in ACR from baseline” value (ALMS patients [2]; [6]) was 133.8 mg/mmol, the “increase in ACR from baseline” value (ALMS patients [2]; [7]) was 43.9 mg/mmol and the “Change from Baseline ACR, Mean (SD)” value (ALMS patients [2]; Week 12, N=12) was 10.08 (20.848) mg/mmol. The “Change from Baseline ACR, Median” value (ALMS patients [2]; Week 12, N=12) was 0.90 mg/mmol, the “Change from Baseline ACR, Mean (SD)” value (ALMS patients [2]; Week 24, N=11) was 4.96 (14.993) mg/mmol and the “Change from Baseline ACR, Median” value (ALMS patients [2]; Week 24, N=11) was 0.30 mg/mmol. The ACR (ALMS patients [2]; EP Week 12 (Week 36)) was 7.5 mg/mmol and 18.0 mg/mmol and 7.9 mg/mmol and 2.0 mg/mmol and 2.2 mg/mmol and 95.0 mg/mmol and <2.3 mg/mmol and 8.6 mg/mmol and 56.3 mg/mmol and 0.6 mg/mmol, the ACR (ALMS patients [2]; EP Week 24 (Week 48)) was 6.2 mg/mmol and 21.6 mg/mmol and 6.7 mg/mmol and 2.1 mg/mmol and 0.8 mg/mmol and 111.7 mg/mmol and 0.7 mg/mmol and 12.9 mg/mmol and 106.5 mg/mmol and <2.3 mg/mmol and the ACR (ALMS patients [2]; EP Week 36 (Week 60)) was 6.1 mg/mmol and 21.9 mg/mmol and 19.2 mg/mmol and <2.3 mg/mmol (2×) and 178.3 mg/mmol and 1.9 mg/mmol and 8.6 mg/mmol and 85.4 mg/mmol. The ACR (ALMS patients [2]; Week 12) was 4.3 mg/mmol and 22.5 mg/mmol and 24.3 mg/mmol and 14.5 mg/mmol and 0.4 mg/mmol and <2.3 mg/mmol (3×) and 89.2 mg/mmol and 15.1 mg/mmol and 102.9 mg/mmol and 15.6 mg/mmol, the ACR (ALMS patients [2]; Week 24) was 4.2 mg/mmol and 15.5 mg/mmol and 14.5 mg/mmol and 10.7 mg/mmol and 2.2 mg/mmol and 77.0 mg/mmol and <2.3 mg/mmol and 13.2 mg/mmol and 77.4 mg/mmol and 10.2 mg/mmol and 1.4 mg/mmol and the “Change from Baseline Fasting Insulin, Mean” value (ALMS patients [3]; EP Week 12 (Week 36), N=10) was -920.20 pmol/L. The “Change from Baseline Fasting Insulin, Median” value (ALMS patients [3]; EP Week 12 (Week 36), N=10) was -53.50 pmol/L, the “Change from Baseline Fasting Insulin, Mean” value (ALMS patients [3]; EP Week 24 (Week 48), N=9) was -1371.78 pmol/L and the “Change from Baseline Fasting Insulin, Median” value (ALMS patients [3]; EP Week 24 (Week 48), N=9) was -24.00 pmol/L. For the same compound, the “Change from Baseline Fasting Insulin, Mean” value (ALMS patients [3]; EP Week 36 (Week 60), N=8) was -1191.63 pmol/L, the “Change from Baseline Fasting Insulin, Median” value (ALMS patients [3]; EP Week 36 (Week 60), N=8) was 7.00 pmol/L and the “Change from Baseline Fasting Insulin, Mean” value (ALMS patients [3]; EP Week 48 (Week 72), N=3) was -3933.00 pmol/L. For the same compound, the “Change from Baseline Fasting Insulin, Median” value (ALMS patients [3]; EP Week 48 (Week 72), N=3) was 193.00 pmol/L, the increase in fasting insulin from baseline (ALMS patients [3]; [5]) was 420 pmol/L and the “decrease of fasting insulin from baseline” value (ALMS patients [3]; after 24 weeks) was about 30%. For the same compound, the “decrease of fasting insulin from baseline” value (ALMS patients [3]; after 72 weeks) was over 96%, the increase in fasting insulin from baseline (ALMS patients [3]; Subject 826-001-004, 30-day break in treatment) was 298 pmol/L and the increase in fasting insulin from baseline (ALMS patients [3]; [6]) was 1970 pmol/L. The increase in fasting insulin from baseline (ALMS patients [3]; [7]) was 1160 pmol/L, the “Change from Baseline Fasting Insulin, Mean” value (ALMS patients [3]; Week 12, N=12) was -18.92 pmol/L and the “Change from Baseline Fasting Insulin, Median” value (ALMS patients [3]; Week 12, N=12) was 9.00 pmol/L. The “Change from Baseline Fasting Insulin, Mean” value (ALMS patients [3]; Week 24, N=12) was -339.08 pmol/L, the “Change from Baseline Fasting Insulin, Median” value (ALMS patients [3]; Week 24, N=12) was -86.00 pmol/L and the “Fasting Insulin” value (ALMS patients [3]; by-subject listing, ALMS subjects, EP Week 48 (Week 72)) was 460 pmol/L and 600 pmol/L and 303 pmol/L. The “Average Adipocyte Area, % Change from Baseline, Mean” value (ALMS patients [4]; [8]) was −9%, the “Average Adipocyte Area, Mean” value (ALMS patients [4]; [8]) was 5550.7 μm^2 and the “Average Adipocyte Area, % Change from Baseline, Median” value (ALMS patients [4]; [9]) was −12%. For the same compound, the “Average Adipocyte Area, Median” value (ALMS patients [4]; [9]) was 5195.1 μm^2, the “subjects in whom average adipocyte area decreased from baseline” value (ALMS patients [4]; 6/9 subjects, after 24 weeks) was 66.7% and the “largest increase in average adipocyte area from baseline” value (ALMS patients [4]; Subject 826-001-012, after 24 weeks) was 25%. The “histological examination of adipocyte tissue” value (ALMS patients [4]; an ALMS subject, after 24 weeks of treatment with 800 mg, FIG. 2B) was “more distinct adipocytes were seen that were smaller in size with no observed coalescence”.
